Experiments:
[1] = tested on: diamondback moth (Plutella xylostella); experiment: Insecticidal effect on diamondback moth (Test Example 1); format: in vivo; settings: diamondback moth; judged by the mortality criterion of Test Example 1
Method in brief: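 Chinese cabbage seedlings carrying eggs laid by released adult moths were immersed in treatment, air-dried and held at 25° C. Hatched insects were counted six days after immersion, and mortality was calculated and scored against a fixed criterion. Three replicate groups of 10 insects were used.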

[2] = tested on: rice leafroller (Cnaphalocrocis medinalis); experiment: Insecticidal effect on rice leafroller (Test Example 3); format: in vivo; settings: 500 ppm; rice lamina immersed; third-instar larvae of rice leafroller; four days after inoculation; 25° C., humidity 70%
Protocol: Insecticidal effect on rice leafroller (Cnaphalocrocis medinalis)
After air-drying, the lamina was placed in a plastic Petri dish with a diameter of 9 cm whose bottom had been covered with a wetted filter paper. The lamina was inoculated with third-instar larvae of rice leafroller, after which the dish was allowed to stand in a room thermostated at 25° C. and having a humidity of 70%. Four days after the inoculation, the dead and alive were counted and the insecticidal effect was judged according to the criterion shown in Test Example 1. The test was carried out with triplicate groups of 10 insects.

CC(C)NC(=O)c1c(Cl)cccc1C(=O)Nc1cccc(SC(F)(F)F)c1 [compound 99]
Insecticidal effect, Test Example 1 [1]: A (100)
Insecticidal effect, Test Example 3 [2]: A (100)

CC(C)NC(=O)c1c(Cl)cccc1C(=O)Nc1ccc(-c2ccccc2)cc1 [compound 110]
Insecticidal effect, Test Example 1 [1]: A (100)
Insecticidal effect, Test Example 3 [2]: A (100)

COc1ccc(NC(=O)c2cccc(Cl)c2C(=O)NC(C)C)c(C)c1 [compound 123]
Insecticidal effect, Test Example 1 [1]: A (100)
Insecticidal effect, Test Example 3 [2]: A (100)

CC(C)NC(=O)c1c(Cl)cccc1C(=O)Nc1ccc(OC(F)F)c(Cl)c1 [compound 134]
Insecticidal effect, Test Example 1 [1]: A (100)
Insecticidal effect, Test Example 3 [2]: A (100)

CC(C)NC(=O)c1c(Cl)cccc1C(=O)Nc1ccc(OC(F)F)c(F)c1 [compound 137]
Insecticidal effect, Test Example 1 [1]: A (100)
Insecticidal effect, Test Example 3 [2]: A (100)

Cc1cc(SC(C)C)ccc1NC(=O)c1cccc(Cl)c1C(=O)NC(C)C [compound 153]
Insecticidal effect, Test Example 1 [1]: A (100)
Insecticidal effect, Test Example 3 [2]: D (79-50)

CC(C)NC(=O)c1cc(Cl)ccc1C(=O)Nc1cccc(C(F)(F)F)c1 [compound 171]
Insecticidal effect, Test Example 1 [1]: A (100)
Insecticidal effect, Test Example 3 [2]: D (79-50)

Cc1ccc(Cl)cc1NC(=O)c1ccc(Cl)cc1C(=O)NC(C)C [compound 178]
Insecticidal effect, Test Example 1 [1]: A (100)
Insecticidal effect, Test Example 3 [2]: A (100)

CC(C)NC(=O)c1ccc(Cl)cc1C(=O)Nc1ccc(Cl)cc1Cl [compound 187]
Insecticidal effect, Test Example 1 [1]: A (100)
Insecticidal effect, Test Example 3 [2]: D (79-50)

CC(C)NC(=O)c1ccc(Cl)cc1C(=O)Nc1ccc(F)c(F)c1 [compound 188]
Insecticidal effect, Test Example 1 [1]: D (79-50)
Insecticidal effect, Test Example 3 [2]: D (79-50)

Cc1ccc(Cl)cc1NC(=O)c1cc(Cl)ccc1C(=O)NC(C)C [compound 191]
Insecticidal effect, Test Example 1 [1]: A (100)
Insecticidal effect, Test Example 3 [2]: A (100)

CC(C)NC(=O)c1cccc(Cl)c1C(=O)Nc1ccc(C(C)(C)C)cc1 [compound 196]
Insecticidal effect, Test Example 1 [1]: A (100)
Insecticidal effect, Test Example 3 [2]: D (79-50)

CC(C)NC(=O)c1cccc(Cl)c1C(=O)Nc1ccc(OC(F)F)cc1 [compound 200]
Insecticidal effect, Test Example 1 [1]: A (100)
Insecticidal effect, Test Example 3 [2]: A (100)

CC(C)NC(=O)c1cccc(Cl)c1C(=O)Nc1cccc([S+]([O-])C(F)(F)F)c1 (centres unmarked) [compound 206]
Insecticidal effect, Test Example 1 [1]: A (100)
Insecticidal effect, Test Example 3 [2]: A (100)

CC(C)NC(=O)c1cccc(Cl)c1C(=O)Nc1ccc(Cl)cc1Cl [compound 209]
Insecticidal effect, Test Example 1 [1]: A (100)
Insecticidal effect, Test Example 3 [2]: B (99-90)

CC(C)NC(=O)c1cccc(Cl)c1C(=O)Nc1ccc(F)cc1F [compound 210]
Insecticidal effect, Test Example 1 [1]: A (100)
Insecticidal effect, Test Example 3 [2]: D (79-50)

CC(C)NC(=O)c1cccc(Cl)c1C(=O)Nc1ccc(F)cc1Cl [compound 211]
Insecticidal effect, Test Example 1 [1]: A (100)
Insecticidal effect, Test Example 3 [2]: A (100)

Cc1cc(Br)ccc1NC(=O)c1c(Cl)cccc1C(=O)NC(C)C [compound 216]
Insecticidal effect, Test Example 1 [1]: A (100)
Insecticidal effect, Test Example 3 [2]: A (100)

Cc1cc(I)ccc1NC(=O)c1c(Cl)cccc1C(=O)NC(C)C [compound 217]
Insecticidal effect, Test Example 1 [1]: A (100)
Insecticidal effect, Test Example 3 [2]: A (100)

COc1ccc(NC(=O)c2c(Cl)cccc2C(=O)NC(C)C)c(C)c1 [compound 218]
Insecticidal effect, Test Example 1 [1]: A (100)
Insecticidal effect, Test Example 3 [2]: C (89-80)

CC(C)NC(=O)c1cccc(Cl)c1C(=O)Nc1ccc(C(F)(F)F)cc1Cl [compound 220]
Insecticidal effect, Test Example 1 [1]: A (100)
Insecticidal effect, Test Example 3 [2]: A (100)

Cc1cc(C(F)(F)C(F)(F)C(F)(F)C(F)(F)C(F)(F)C(F)(F)F)ccc1NC(=O)c1c(Cl)cccc1C(=O)NC(C)C [compound 226]
Insecticidal effect, Test Example 1 [1]: A (100)
Insecticidal effect, Test Example 3 [2]: A (100)

Reference: US6362369B1, “Phthalic acid diamide derivatives fluorine-containing aniline compounds as starting material, agricultural and horticultural insecticides, and a method for application of the insecticides” (Nihon Nohyaku Co., Ltd., priority 1997, dated 2002)
